System: inhibitory dsRNA
Assay: K9 protein-RNA complex by electrophoresis of labeled inhibitory dsRNA and K9 protein
Assay type: binding
Conditions: 4 M Urea, 10 mM Hepes, pH 8.15; 1.5% agarose gel; FIG. 5
Method: Inhibitory dsRNA 3′-labeled with Dy547 is purchased from Dharmacon (Lafayette, Colo.). Labeled and unlabeled inhibitory dsRNA solutions are diluted to 4 μM in 4 M Urea, 10 mM Hepes, pH 8.15. […] Labeled and unlabeled protein solutions are diluted to 3 μM in 4M Urea.
Labeled and unlabeled RNA and protein are used in separate binding reactions. Samples are run on a 1.5% TAE-agarose gel for 35 minutes at 110 volts.
A typhoon phosphoimager(GE) is used to visualize the cy5-only, DY547-only and cy5/DY547 labeled RNA protein complexes. Filters are employed to separately detect Dy547 (FIG. 5A) and cy5 (FIG. 5B) fluorescent labels. To image all fluorescence on the gel, cy5-filtered and dy547-filtered images are overlayed (FIG. 5C).

## K9: modified HBV core protein (contains E77C), 9-lysine C-terminal tail, His tag, SEQ ID NO: 10 [Mutant K9]
  complex formation of K9 protein with inhibitory dsRNA (shifted band): form a complex in solution
